Assay [1] addresses Human sodium/glucose co-transporter type 2 (SGLT2) (Homo sapiens (Human), UniProt P31639). Kind of assay: In vitro human SGLT2 inhibition assay (14C-AMG uptake). To be noted: HEK293 cells expressing human HA-SGLT2, 14C-AMG uptake. The assay is classed as cell-based. In short, it runs like this: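 Uptake of 14C-AMG (100 nCi) was followed in a stable HEK293 HA-SGLT2 line over 1-2 h at 37 °C with or without compound. Buffer: 140 mM NaCl, 10 mM HEPES, 5 mM Tris, 1 mg/mL BSA, pH 7.3. Readout was scintillation counting after washing.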

Assay [2] concerns the target Human sodium/glucose co-transporter type 1 (SGLT1) (Homo sapiens (Human), UniProt P13866). The assay can be described thus: In vitro human SGLT1 inhibition assay (14C-AMG uptake). The assay is classed as cell-based. Further details: key to SGLT1 (human SGLT1 IC50): ***: a value less than 0.01 μM; **: a value less than 0.1 μM; *: a value less than 1 μM; —: a value not measured or exceeding μM. The settings on record: HEK293 cells expressing human HA-SGLT1, 14C-AMG uptake. In short, it runs like this: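 Uptake of 14C-AMG (100 nCi) was measured by scintillation counting after 1–2 h at 37 °C, 5% CO2, with or without compound. The buffer was pH 7.3 with 140 mM NaCl, 1 mM CaCl2, 1 mM MgCl2 and 1 mg/mL BSA. Cells were a stable HEK293 line carrying HA-SGLT1 (human), plated overnight at 30,000 per well.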

Sequence of Human sodium/glucose co-transporter type 1 (SGLT1) (P13866 whole entry): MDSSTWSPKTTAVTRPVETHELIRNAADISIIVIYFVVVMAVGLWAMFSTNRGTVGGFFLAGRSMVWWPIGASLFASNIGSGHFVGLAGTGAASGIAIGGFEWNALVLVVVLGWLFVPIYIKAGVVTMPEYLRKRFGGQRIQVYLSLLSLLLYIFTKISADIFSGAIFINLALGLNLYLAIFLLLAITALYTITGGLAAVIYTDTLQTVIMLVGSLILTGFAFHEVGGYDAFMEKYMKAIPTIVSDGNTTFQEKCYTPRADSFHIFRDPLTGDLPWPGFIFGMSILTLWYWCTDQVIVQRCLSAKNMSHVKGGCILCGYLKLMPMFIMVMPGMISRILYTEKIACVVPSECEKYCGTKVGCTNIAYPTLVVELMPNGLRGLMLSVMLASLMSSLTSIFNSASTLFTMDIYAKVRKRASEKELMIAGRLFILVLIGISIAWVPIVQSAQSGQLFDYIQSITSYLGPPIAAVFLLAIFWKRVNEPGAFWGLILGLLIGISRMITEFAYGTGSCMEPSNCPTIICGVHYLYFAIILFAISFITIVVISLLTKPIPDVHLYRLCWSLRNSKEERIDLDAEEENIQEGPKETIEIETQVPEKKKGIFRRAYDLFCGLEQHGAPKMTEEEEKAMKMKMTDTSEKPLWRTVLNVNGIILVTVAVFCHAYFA
Sequence of Human sodium/glucose co-transporter type 2 (SGLT2) (P31639 whole entry): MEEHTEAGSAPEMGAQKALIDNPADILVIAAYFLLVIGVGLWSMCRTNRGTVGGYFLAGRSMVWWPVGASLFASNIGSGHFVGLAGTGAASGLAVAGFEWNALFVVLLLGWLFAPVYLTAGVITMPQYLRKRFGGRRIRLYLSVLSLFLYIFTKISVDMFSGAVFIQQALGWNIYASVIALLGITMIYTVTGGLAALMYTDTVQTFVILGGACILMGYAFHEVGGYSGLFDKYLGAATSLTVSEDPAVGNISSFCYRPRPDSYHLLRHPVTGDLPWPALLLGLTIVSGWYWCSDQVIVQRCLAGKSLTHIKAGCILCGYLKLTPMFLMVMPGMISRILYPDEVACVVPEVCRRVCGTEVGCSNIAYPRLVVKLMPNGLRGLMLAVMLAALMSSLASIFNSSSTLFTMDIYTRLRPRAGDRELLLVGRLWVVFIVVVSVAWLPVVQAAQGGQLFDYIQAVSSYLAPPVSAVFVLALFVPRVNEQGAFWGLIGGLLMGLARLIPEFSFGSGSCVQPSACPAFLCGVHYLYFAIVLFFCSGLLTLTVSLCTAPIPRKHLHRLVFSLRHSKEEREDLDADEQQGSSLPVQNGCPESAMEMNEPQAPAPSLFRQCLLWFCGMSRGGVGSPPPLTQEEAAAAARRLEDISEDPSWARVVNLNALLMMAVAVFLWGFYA

Consider `CS[C@H]1O[C@@H](c2ccc(Cl)c(Cc3ccc(OCCCC(=O)N(C)C(C)(C)C(N)=O)cc3)c2)[C@H](O)[C@@H](O)[C@@H]1O` [N-(1-amino-2-methyl-1-oxopropan-2-yl)-4-(4-(2-chloro-5-((2S,3R,4R,5S,6R)-3,4,5-trihydroxy-6-(methylthio)tetrahydro-2H-pyran-2-yl)benzyl)phenoxy)-N-methylbutanamide], for which the IC50 in assay [1] and in assay [2] was under 10 nM each time.

As to `CS[C@H]1O[C@@H](c2ccc(C)c(Cc3ccc(CCCC(=O)NC(C)(C)CO)cc3)c2)[C@H](O)[C@@H](O)[C@@H]1O` [N-(1-hydroxy-2-methylpropan-2-yl)-4-(4-(2-methyl-5-((2S,3R,4R,5S,6R)-3,4,5-trihydroxy-6-(methylthio)tetrahydro-2H-pyran-2-yl)benzyl)phenyl)butanamide], the IC50 in assay [1] and in assay [2] was under 10 nM throughout.

As for `CS[C@H]1O[C@@H](c2ccc(Cl)c(Cc3ccc(OCCCC(=O)O)cc3)c2)[C@H](O)[C@@H](O)[C@@H]1O` [4-(4-(2-chloro-5-((2S,3R,4R,5S,6R)-3,4,5-trihydroxy-6-(methylthio)tetrahydro-2H-pyran-2-yl)benzyl)phenoxy)butanoic acid], the IC50 in assay [1] was under 10 nM; in assay [2], under 1000 nM.

Regarding `CS[C@H]1O[C@@H](c2ccc(C)c(Cc3ccc(CCCCC(=O)NC(C)(C)C(N)=O)cc3)c2)[C@H](O)[C@@H](O)[C@@H]1O` [N-(1-amino-2-methyl-1-oxopropan-2-yl)-5-(4-(2-methyl-5-((2S,3R,4R,5S,6R)-3,4,5-trihydroxy-6-(methylthio)tetrahydro-2H-pyran-2-yl)benzyl)phenyl)pentanamide], the half-maximal inhibitory concentration (IC50) in assay [1] and in assay [2] was under 10 nM in each case.

For `CS[C@H]1O[C@@H](c2ccc(C)c(Cc3ccc(CCCC(=O)NC(C)(C)C(=O)O)cc3)c2)[C@H](O)[C@@H](O)[C@@H]1O` [2-methyl-2-(4-(4-(2-methyl-5-((2S,3R,4R,5S,6R)-3,4,5-trihydroxy-6-(methylthio)tetrahydro-2H-pyran-2-yl)benzyl)phenyl)butanamido)propanoic acid], the IC50 was under 10 nM in assay [1] and under 100 nM in assay [2].

`CS[C@H]1O[C@@H](c2ccc(Cl)c(Cc3ccc(OCCCC(=O)N(CCO)CCO)cc3)c2)[C@H](O)[C@@H](O)[C@@H]1O` [4-(4-(2-chloro-5-((2S,3R,4R,5S,6R)-3,4,5-trihydroxy-6-(methylthio)tetrahydro-2H-pyran-2-yl)benzyl)phenoxy)-N,N-bis(2-hydroxyethyl)butanamide]: the IC50 is under 10 nM in assay [1] and under 100 nM in assay [2].

Turning to `CS[C@H]1O[C@@H](c2ccc(C)c(Cc3ccc(OCCCC(=O)N[C@H](C)C(N)=O)cc3)c2)[C@H](O)[C@@H](O)[C@@H]1O` [N-((R)-1-amino-1-oxopropan-2-yl)-4-(4-(2-methyl-5-((2S,3R,4R,5S,6R)-3,4,5-trihydroxy-6-(methylthio)tetrahydro-2H-pyran-2-yl)benzyl)phenoxy)butanamide], the IC50 in assay [1] and in assay [2] was under 10 nM throughout.

`CS[C@H]1O[C@@H](c2ccc(C)c(Cc3ccc(OCC(N)=O)cc3)c2)[C@H](O)[C@@H](O)[C@@H]1O` [2-(4-(2-methyl-5-((2S,3R,4R,5S,6R)-3,4,5-trihydroxy-6-(methylthio)tetrahydro-2H-pyran-2-yl)benzyl)phenoxy)acetamide]: the figures for the IC50 in assay [1] and in assay [2] were under 10 nM and under 100 nM, respectively.

Turning to `CS[C@H]1O[C@@H](c2ccc(Cl)c(Cc3ccc(OCCNC(=O)N4CCN(C)CC4)cc3)c2)[C@H](O)[C@@H](O)[C@@H]1O` [N-(2-(4-(2-chloro-5-((2S,3R,4R,5S,6R)-3,4,5-trihydroxy-6-(methylthio)tetrahydro-2H-pyran-2-yl)benzyl)phenoxy)ethyl)-4-methylpiperazine-1-carboxamide], the IC50 in assay [1] and in assay [2] was under 10 nM throughout.

As to `CS[C@H]1O[C@@H](c2ccc(C)c(Cc3ccc(OCCCC(=O)NC(C)(C)C(=O)NC4CCNCC4)cc3)c2)[C@H](O)[C@@H](O)[C@@H]1O` [N-(2-methyl-1-oxo-1-(piperidin-4-ylamino)propan-2-yl)-4-(4-(2-methyl-5-((2S,3R,4R,5S,6R)-3,4,5-trihydroxy-6-(methylthio)tetrahydro-2H-pyran-2-yl)benzyl)phenoxy)butanamide], the IC50 in assay [1] and in assay [2] was under 10 nM in each case.

As to `CCC(=O)NCCOc1ccc(Cc2cc([C@@H]3O[C@H](SC)[C@@H](O)[C@H](O)[C@H]3O)ccc2Cl)cc1` [N-(2-(4-(2-chloro-5-((2S,3R,4R,5S,6R)-3,4,5-trihydroxy-6-(methylthio)tetrahydro-2H-pyran-2-yl)benzyl)phenoxy)ethyl)propionamide], the IC50 in assay [1] and in assay [2] was under 10 nM each time.

Turning to `CS[C@H]1O[C@@H](c2ccc(C)c(Cc3ccc(CCCC(=O)NC(C)(C)C(=O)N4CCOCC4)cc3)c2)[C@H](O)[C@@H](O)[C@@H]1O` [N-(2-methyl-1-morpholino-1-oxopropan-2-yl)-4-(4-(2-methyl-5-((2S,3R,4R,5S,6R)-3,4,5-trihydroxy-6-(methylthio)tetrahydro-2H-pyran-2-yl)benzyl)phenyl)butanamide], the IC50 in assay [1] and in assay [2] was under 10 nM throughout.

`CS[C@H]1O[C@@H](c2ccc(Cl)c(Cc3ccc(OCCCC[C@H](N)C(=O)O)cc3)c2)[C@H](O)[C@@H](O)[C@@H]1O` [(S)-2-amino-6-(4-(2-chloro-5-((2S,3R,4R,5S,6R)-3,4,5-trihydroxy-6-(methylthio)tetrahydro-2H-pyran-2-yl)benzyl)phenoxy)hexanoic acid]: the IC50 was under 10 nM in assay [1] and under 100 nM in assay [2].

Turning to `CS[C@H]1O[C@@H](c2ccc(C)c(Cc3ccc(/C=C/CC(C(=O)NC(C)(C)C(N)=O)C(=O)NC(C)(C)C(N)=O)cc3)c2)[C@H](O)[C@@H](O)[C@@H]1O` [N1,N3-bis(1-amino-2-methyl-1-oxopropan-2-yl)-2-((E)-3-(4-(2-methyl-5-((2S,3R,4R,5S,6R)-3,4,5-trihydroxy-6-(methylthio)tetrahydro-2H-pyran-2-yl)benzyl)phenyl)allyl)malonamide], the IC50 was under 10 nM in assay [1] and under 100 nM in assay [2].

Regarding `CS[C@H]1O[C@@H](c2ccc(C)c(Cc3ccc(OCCCC(=O)NC(C)(C)C(=O)N4CCOCC4)cc3)c2)[C@H](O)[C@@H](O)[C@@H]1O` [N-(2-methyl-1-morpholino-1-oxopropan-2-yl)-4-(4-(2-methyl-5-((2S,3R,4R,5S,6R)-3,4,5-trihydroxy-6-(methylthio)tetrahydro-2H-pyran-2-yl)benzyl)phenoxy)butanamide], the IC50 in assay [1] and in assay [2] was under 10 nM throughout.

For the compound `CS[C@H]1O[C@@H](c2ccc(C)c(Cc3ccc(OCCCC(=O)NC(C)(C)C(=O)O)cc3)c2)[C@H](O)[C@@H](O)[C@@H]1O` [2-methyl-2-(4-(4-(2-methyl-5-((2S,3R,4R,5S,6R)-3,4,5-trihydroxy-6-(methylthio)tetrahydro-2H-pyran-2-yl)benzyl)phenoxy)butanamido)propanoic acid], the IC50 in assay [1] and in assay [2] was under 10 nM throughout.

Consider `CS[C@H]1O[C@@H](c2ccc(C)c(Cc3ccc(CCCCNC(=O)NC(C)(C)CO)cc3)c2)[C@H](O)[C@@H](O)[C@@H]1O` [1-(1-hydroxy-2-methylpropan-2-yl)-3-(4-(4-(2-methyl-5-((2S,3R,4R,5S,6R)-3,4,5-trihydroxy-6-(methylthio)tetrahydro-2H-pyran-2-yl)benzyl)phenyl)butyl)urea], for which the results for the IC50 in assay [1] and in assay [2] were under 10 nM and under 100 nM, respectively.

In assay [1], `CS[C@H]1O[C@@H](c2ccc(C)c(Cc3ccc(CCCCC(=O)NC(C)(C)C(=O)O)cc3)c2)[C@H](O)[C@@H](O)[C@@H]1O` [2-methyl-2-(5-(4-(2-methyl-5-((2S,3R,4R,5S,6R)-3,4,5-trihydroxy-6-(methylthio)tetrahydro-2H-pyran-2-yl)benzyl)phenyl)pentanamido)propanoic acid] gave an IC50 of under 100 nM. The “SGLT1 (human SGLT1 IC50)” value in assay [2] is given as “—”.

In the case of `CS[C@H]1O[C@@H](c2ccc(C)c(Cc3ccc(CCCCC(=O)NC(C)(C)C(=O)N4CCN(C)CC4)cc3)c2)[C@H](O)[C@@H](O)[C@@H]1O` [N-(2-methyl-1-(4-methylpiperazin-1-yl)-1-oxopropan-2-yl)-5-(4-(2-methyl-5-((2S,3R,4R,5S,6R)-3,4,5-trihydroxy-6-(methylthio)tetrahydro-2H-pyran-2-yl)benzyl)phenyl)pentanamide], the IC50 in assay [1] and in assay [2] was under 10 nM in each case.

`CS[C@H]1O[C@@H](c2ccc(C)c(Cc3ccc(CCCC(=O)NCC(C)(C)C(=O)N(C)CCN(C)C)cc3)c2)[C@H](O)[C@@H](O)[C@@H]1O` [N-(3-((2-(dimethylamino)ethyl)(methyl)amino)-2,2-dimethyl-3-oxopropyl)-4-(4-(2-methyl-5-((2S,3R,4R,5S,6R)-3,4,5-trihydroxy-6-(methylthio)tetrahydro-2H-pyran-2-yl)benzyl)phenyl)butanamide] gave a concentration for half-maximal inhibition (IC50) in assay [1] of under 100 nM. Further, the “SGLT1 (human SGLT1 IC50)” value in assay [2] is recorded as “—”.

With `CS[C@H]1O[C@@H](c2ccc(C)c(Cc3ccc(OCCCC(=O)NC(CO)CO)cc3)c2)[C@H](O)[C@@H](O)[C@@H]1O` [N-(1,3-dihydroxypropan-2-yl)-4-(4-(2-methyl-5-((2S,3R,4R,5S,6R)-3,4,5-trihydroxy-6-(methylthio)tetrahydro-2H-pyran-2-yl)benzyl)phenoxy)butanamide], the IC50 in assay [1] and in assay [2] was under 10 nM in each case.

What is called IC50 is the midpoint of a concentration-inhibition curve.

The values above are taken from patent US9688710B2, “Inhibitors of sodium glucose cotransporter 1” (LEXICON PHARMACEUTICALS, INC., priority 2012, dated 2017).
